Structures can show the parent of a compound that is named as a salt.
Tests used:
HeLa cells [1] = assay: CFTR Protein Expression Assay in HeLa Cells; assay type: cell-based, Human; settings: LNPs encapsulating CFTR mRNA, N=4 wells; 5 h serum-free then 24 h; immunofluorescence vs PBS control
Procedure, shortened: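 Readout is fold-change in per-cell CFTR immunofluorescence intensity (488 nm, confocal imaging) relative to PBS-treated cells, from 4 replicate wells. LNPs encapsulating CFTR mRNA were applied serum-free for 5 h, followed by 24 h in complete medium before PFA fixation.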

HeLa cells [2] = assay: Luciferase Protein Expression Assay in HeLa Cells; assay type: cell-based, Human; settings: LNPs encapsulating Luciferase mRNA, 25 ng per well, N=4 wells; 5 h serum-free then 24 h; ONE-Glo
Procedure, shortened: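 Luminescence output, average RLU across N=4 wells, was measured with ONE-Glo after cell lysis. Before that, HeLa cells were exposed to 25 ng/well luciferase-mRNA nanoparticles (PBS control) for 5 h serum-free, then cultured overnight (24 h) in complete MEM.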

[3] = Encapsulation of mRNA nanoparticles with lipid amines using Ribogreen assay; assay type: physicochemical
Procedure, shortened: (§1)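 DLS gave size and PDI, and Ribogreen gave encapsulation, for luciferase- or CFTR-mRNA nanoparticles (N:P 4.93). Particles came from IL1/DSPC/cholesterol/PEG-DMG-2K mixed at pH 4, mRNA-loaded, neutralized with TRIS pH 8.12, and then treated with lipid amine SA50 in pH 7.5 buffer.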

[4] = Diameter and PDI from DLS measurements of mRNA nanoparticles with lipid amines; assay type: physicochemical
Procedure, shortened: as §1

[5] = CFTR mRNA nanoparticle with lipid amine
[6] = Luciferase mRNA nanoparticle modified with lipid amine

Compound | Average fold-change in CFTR signal intensity per cell compared to buffer control ± standard deviation (HeLa cells [1]) | Average Relative Light Units ± Standard Deviation (HeLa cells [2]) | % Encapsulation (Ribogreen) [3, 5] | % Encapsulation (Ribogreen) [3, 6] | Diameter (nm) [4, 5] | PDI [4, 5] | Diameter (nm) [4, 6] | PDI [4, 6]
CC(C)CCC[C@@H](C)[C@H]1CC[C@H]2[C@@H]3CC=C4C[C@@H](SSCCC(=O)N(CCC(C)(C)N)CCC(C)(C)N)CC[C@]4(C)[C@H]3CC[C@]12C [SA174, N,N-bis(3-amino-3-methylbutyl)-3-(((3S,8S,9S,10R,13R,14S,17R)-10,13-dimethyl-17-((R)-6-methylheptan-2-yl)-2,3,4,7,8,9,10,11,12,13,14,15,16,17-tetradecahydro-1H-cyclopenta[a]phenanthren-3-yl)disulfaneyl)propanamide dihydrochloride] | 14.8 ± 1.4 fold-change | 31280.7 ± 5830.7 Relative Light Units | 98.1% | 99.5% | 71.1 nm | 0.16 | 73 nm | 0.17
CC[C@H](CC[C@@H](C)[C@H]1CC[C@H]2[C@@H]3CC=C4C[C@@H](SSCCC(=O)N(CCCCCCCC(C)N)CCC(C)N)CC[C@]4(C)[C@H]3CC[C@]12C)C(C)C (stereo partly drawn) [SA178, N-(3-aminobutyl)-N-(8-aminononyl)-3-(((3S,8S,9S,10R,13R,14S,17R)-17-((2R,5R)-5-ethyl-6-methylheptan-2-yl)-10,13-dimethyl-2,3,4,7,8,9,10,11,12,13,14,15,16,17-tetradecahydro-1H-cyclopenta[a]phenanthren-3-yl)disulfaneyl)propanamide dihydrochloride] | 9.8 ± 0.3 fold-change | 10196.5 ± 602.4 Relative Light Units | 100% | 98.8% | 83 nm | 0.26 | 75 nm | 0.20
CC[C@H](CC[C@@H](C)[C@H]1CC[C@H]2[C@@H]3CC=C4C[C@@H](SSCCC(=O)N(CCCCCCCC(C)(C)N)CCC(C)(C)N)CC[C@]4(C)[C@H]3CC[C@]12C)C(C)C [SA179, N-(3-amino-3-methylbutyl)-N-(8-amino-8-methylnonyl)-3-(((3S,8S,9S,10R,13R,14S,17R)-17-((2R,5R)-5-ethyl-6-methylheptan-2-yl)-10,13-dimethyl-2,3,4,7,8,9,10,11,12,13,14,15,16,17-tetradecahydro-1H-cyclopenta[a]phenanthren-3-yl)disulfaneyl)propanamide dihydrochloride] | 7.0 ± 0.6 fold-change | 12298.9 ± 928.6 Relative Light Units | 99.8% | 99.0% | 73 nm | 0.15 | 73 nm | 0.17
CC[C@H](CC[C@@H](C)[C@H]1CC[C@H]2[C@@H]3CC=C4C[C@@H](SSCCC(=O)N(CCCCNCCC(N)(CC)CC)CCC(N)(CC)CC)CC[C@]4(C)[C@H]3CC[C@]12C)C(C)C [SA181, N-(3-amino-3-ethylpentyl)-N-(4-((3-amino-3-ethylpentyl)amino)butyl)-3-(((3S,8S,9S,10R,13R,14S,17R)-17-((2R,5R)-5-ethyl-6-methylheptan-2-yl)-10,13-dimethyl-2,3,4,7,8,9,10,11,12,13,14,15,16,17-tetradecahydro-1H-cyclopenta[a]phenanthren-3-yl)disulfaneyl)propanamide trihydrochloride] | 6.3 ± 0.4 fold-change | 12107.3 ± 1481.4 Relative Light Units | 98.7% | 99.5% | 69 nm | 0.13 | 74 nm | 0.16
CC[C@H](CC[C@@H](C)[C@H]1CC[C@H]2[C@@H]3CC=C4C[C@@H](OC(=O)CCCC(=O)N(CCCCNCCC(N)(CC)CC)CCC(N)(CC)CC)CC[C@]4(C)[C@H]3CC[C@]12C)C(C)C [SA182, (3S,8S,9S,10R,13R,14S,17R)-17-((2R,5R)-5-ethyl-6-methylheptan-2-yl)-10,13-dimethyl-2,3,4,7,8,9,10,11,12,13,14,15,16,17-tetradecahydro-1H-cyclopenta[a]phenanthren-3-yl 5-((3-amino-3-ethylpentyl)(4-((3-amino-3-ethylpentyl)amino)butyl)amino)-5-oxopentanoate trihydrochloride] | 13.2 ± 0.9 fold-change | 38564.9 ± 12453 Relative Light Units | 98.0% | 99.0% | 72 nm | 0.13 | 73 nm | 0.14
CC[C@H](CC[C@@H](C)[C@H]1CC[C@H]2[C@@H]3CC=C4C[C@@H](OC(=O)N(CCCCNCCC(N)(CC)CC)CCC(N)(CC)CC)CC[C@]4(C)[C@H]3CC[C@]12C)C(C)C [SA183, (3S,8S,9S,10R,13R,14S,17R)-17-((2R,5R)-5-ethyl-6-methylheptan-2-yl)-10,13-dimethyl-2,3,4,7,8,9,10,11,12,13,14,15,16,17-tetradecahydro-1H-cyclopenta[a]phenanthren-3-yl (3-amino-3-ethylpentyl)(4-((3-amino-3-ethylpentyl)amino)butyl)carbamate trihydrochloride] | 13.6 ± 0.7 fold-change | 33915.2 ± 6639.9 Relative Light Units | 99.0% | 99.6% | 71 nm | 0.14 | 76 nm | 0.21
CCC(N)(CC)CCNCCCCN(CCC(N)(CC)CC)C(=O)CCSS[C@H]1CC[C@@]2(C)C(=CC[C@H]3[C@@H]4CC[C@H]([C@H](C)CCCC(C)C)[C@@]4(C)CC[C@@H]32)C1 [SA184, N-(3-amino-3-ethylpentyl)-N-(4-((3-amino-3-ethylpentyl)amino)butyl)-3-(((3S,8S,9S,10R,13R,14S,17R)-10,13-dimethyl-17-((R)-6-methylheptan-2-yl)-2,3,4,7,8,9,10,11,12,13,14,15,16,17-tetradecahydro-1H-cyclopenta[a]phenanthren-3-yl)disulfaneyl)propanamide trihydrochloride] | 11.3 ± 0.7 fold-change | 26222.4 ± 4612.1 Relative Light Units | 99.0% | 98.8% | 71 nm | 0.13 | 74 nm | 0.12
CCC(N)(CC)CCNCCCCN(CCC(N)(CC)CC)C(=O)CCCC(=O)O[C@H]1CC[C@@]2(C)C(=CC[C@H]3[C@@H]4CC[C@H]([C@H](C)CCCC(C)C)[C@@]4(C)CC[C@@H]32)C1 [SA185, (3S,8S,9S,10R,13R,14S,17R)-10,13-dimethyl-17-((R)-6-methylheptan-2-yl)-2,3,4,7,8,9,10,11,12,13,14,15,16,17-tetradecahydro-1H-cyclopenta[a]phenanthren-3-yl 5-((3-amino-3-ethylpentyl)(4-((3-amino-3-ethylpentyl)amino)butyl)amino)-5-oxopentanoate trihydrochloride] | 14.2 ± 1.0 fold-change | 36168.3 ± 7638.9 Relative Light Units | 98.6% | 99.4% | 73 nm | 0.16 | 75 nm | 0.16

Reference: patent US20260109732A1, “LIPID AMINES” (ModernaTX, Inc., priority 2021, published 2026)
